Results taken from US9776997B2, “3-aryl-substituted imidazo[1,2-A]pyridines and their use” (Bayer Pharma Aktiengesellschaft, priority 2013, dated 2017).
Several values for one entry are separate records, joined by “and”; a condition that tells them apart may be missing. Equal entries are not always repeated. Structures can show the parent of a compound that is named as a salt.

Molecular target: T1, recombinant guanylate cyclase reporter cell line (Rattus norvegicus, UniProt P19686+P20595)
T1 construct: expressed in transfected cells; host or cells: recombinant reporter cell line
T1 sequence (P19686 1-690): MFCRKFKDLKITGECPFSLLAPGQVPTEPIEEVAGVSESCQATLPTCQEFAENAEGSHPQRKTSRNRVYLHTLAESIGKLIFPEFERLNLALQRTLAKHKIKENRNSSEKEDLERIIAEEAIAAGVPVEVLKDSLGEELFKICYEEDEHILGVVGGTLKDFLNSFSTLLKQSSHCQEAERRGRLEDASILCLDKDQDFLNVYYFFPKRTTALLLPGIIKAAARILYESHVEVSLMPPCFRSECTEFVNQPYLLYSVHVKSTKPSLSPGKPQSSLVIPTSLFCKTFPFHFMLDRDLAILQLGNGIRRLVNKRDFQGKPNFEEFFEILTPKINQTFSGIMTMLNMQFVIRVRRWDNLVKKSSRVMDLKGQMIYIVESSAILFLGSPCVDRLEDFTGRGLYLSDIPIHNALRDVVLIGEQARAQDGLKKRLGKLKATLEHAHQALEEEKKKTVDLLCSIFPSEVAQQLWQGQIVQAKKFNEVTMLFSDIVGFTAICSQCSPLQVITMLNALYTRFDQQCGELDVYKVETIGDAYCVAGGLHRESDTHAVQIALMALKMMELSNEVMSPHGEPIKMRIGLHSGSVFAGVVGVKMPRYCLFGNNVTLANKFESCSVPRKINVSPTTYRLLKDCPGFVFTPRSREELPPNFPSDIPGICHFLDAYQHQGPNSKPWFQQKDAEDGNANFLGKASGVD
T1 sequence (P20595 1-619): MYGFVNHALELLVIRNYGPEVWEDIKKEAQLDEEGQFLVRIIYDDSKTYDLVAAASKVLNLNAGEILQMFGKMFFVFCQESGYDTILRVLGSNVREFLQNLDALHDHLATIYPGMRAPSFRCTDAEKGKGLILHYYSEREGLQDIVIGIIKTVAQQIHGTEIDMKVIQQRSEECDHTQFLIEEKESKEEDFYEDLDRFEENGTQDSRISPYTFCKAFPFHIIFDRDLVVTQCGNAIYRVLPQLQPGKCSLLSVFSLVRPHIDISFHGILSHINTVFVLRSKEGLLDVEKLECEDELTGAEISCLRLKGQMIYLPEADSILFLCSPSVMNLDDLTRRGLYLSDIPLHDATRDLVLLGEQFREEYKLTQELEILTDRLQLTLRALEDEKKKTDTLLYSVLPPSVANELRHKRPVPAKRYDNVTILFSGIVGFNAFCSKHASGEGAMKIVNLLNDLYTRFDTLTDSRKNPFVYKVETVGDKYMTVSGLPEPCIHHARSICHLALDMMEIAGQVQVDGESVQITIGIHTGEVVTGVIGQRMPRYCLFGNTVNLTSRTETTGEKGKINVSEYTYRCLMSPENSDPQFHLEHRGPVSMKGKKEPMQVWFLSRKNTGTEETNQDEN
Assay: Effect on a recombinant guanylate cyclase reporter cell line
Assay type: cell-based
Conditions: MEC = minimum effective concentration; in some cases mean values for individual determinations
Experimental: B-2. Effect on a Recombinant Guanylate Cyclase Reporter Cell Line
The cellular effect of the inventive compounds is determined using a recombinant guanylate cyclase reporter cell line, as described in F. Wunder et al., Anal. Biochem. 339, 104-112 (2005).
Representative MEC values (MEC=minimum effective concentration) for the inventive compounds are shown in the table below (in some cases as mean values for individual determinations): […]

SMILES	MEC
Cc1nc2c(OCc3c(F)cccc3F)cccn2c1-c1ccnn1C [Example 11, 8-[(2,6-difluorobenzyl)oxy]-2-methyl-3-(1-methyl-1H-pyrazol-5-yl)imidazo[1,2-a]pyridine]	3.0 µM
Cc1nc2c(OCc3c(F)cccc3F)cccn2c1-c1nc(N)n[nH]1 [Example 124, 5-{8-[(2,6-Difluorobenzyl)oxy]-2-methylimidazo[1,2-a]pyridin-3-yl}-1H-1,2,4-triazol-3-amine]	3.0 µM
Cc1nc2c(OCc3c(F)cccc3F)cccn2c1-c1cnc2ccccc2c1 [Example 19, 3-{8-[(2,6-difluorobenzyl)oxy]-2-methylimidazo[1,2-a]pyridin-3-yl}quinoline]	1.0 µM
CC(=O)Nc1cccc(-c2c(C)nc3c(OCc4c(F)cccc4F)cccn23)c1 [Example 4, N-(3-{8-[(2,6-difluorobenzyl)oxy]-2-methylimidazo[1,2-a]pyridin-3-yl}phenyl)acetamide]	0.2 µM
Cc1cc(-c2c(C)nc3c(OCc4c(F)cccc4F)cccn23)ccn1 [Example 3, 8-[(2,6-difluorobenzyl)oxy]-2-methyl-3-(2-methylpyridin-4-yl)imidazo[1,2-a]pyridine]	0.1 µM
Cc1nc2c(OCc3c(F)cccc3F)cccn2c1-c1cnn(Cc2ccccc2)c1 [Example 1, 3-(1-Benzyl-1H-pyrazol-4-yl)-8-[(2,6-difluorobenzyl)oxy]-2-methylimidazo[1,2-a]pyridine]	0.065 µM
Cc1nc2c(OCc3c(F)cccc3F)cccn2c1-c1ccn[nH]1 [Example 47]	0.3 µM
Cc1cc(OCc2c(F)cccc2F)c2nc(C)c(-c3cncc(C(=O)O)c3)n2c1 [Example 76, 5-{8-[(2,6-Difluorobenzyl)oxy]-2,6-dimethylimidazo[1,2-a]pyridin-3-yl}nicotinic acid trifluoroacetate]	3.0 µM
Cc1cc(OCc2c(F)cccc2F)c2nc(C)c(-c3cc(CC(C)(C)N)no3)n2c1 [Example 144, 1-(5-{8-[(2,6-Difluorobenzyl)oxy]-2,6-dimethylimidazo[1,2-a]pyridin-3-yl}-1,2-oxazol-3-yl)-2-methylpropan-2-amine]	0.3 µM
Cc1nc2c(OCc3c(F)cccc3F)cccn2c1-c1cnccn1 [Example 60, 8-[(2,6-Difluorobenzyl)oxy]-2-methyl-3-(pyrazin-2-yl)imidazo[1,2-a]pyridine]	3.0 µM
Cc1cc(OCc2c(F)cccc2F)c2nc(C)c(-c3cnn(Cc4cc(C)on4)c3)n2c1 [Example 98, 8-[(2,6-Difluorobenzyl)oxy]-2,6-dimethyl-3-{1-[(5-methyl-1,2-oxazol-3-yl)methyl]-1H-pyrazol-4-yl}imidazo[1,2-a]pyridine]	0.03 µM and 3.0 µM
Cc1cc(OCc2c(F)cccc2F)c2nc(C)c(-c3cc(CC(C)(C)N)n[nH]3)n2c1 [Example 143, 1-(3-{8-[(2,6-Difluorobenzyl)oxy]-2,6-dimethylimidazo[1,2-a]pyridin-3-yl}-1H-pyrazol-5-yl)-2-methylpropan-2-amine]	1.0 µM
CCOC(=O)c1cccc(-c2c(C)nc3c(OCc4c(F)cccc4F)cccn23)c1 [Example 18, Ethyl 3-{8-[(2,6-difluorobenzyl)oxy]-2-methylimidazo[1,2-a]pyridin-3-yl}benzoate]	1.0 µM
Cc1cc(OCc2c(F)ccc(F)c2F)c2nc(C)c(-c3cnn(CC(C)(C)N)c3)n2c1 [Example 87, 1-(4-{2,6-Dimethyl-8-[(2,3,6-trifluorobenzyl)oxy]imidazopyridin-3-yl}-1H-pyrazol-1-yl)-2-methylpropan-2-amine]	0.1 µM
Cc1nc2c(OCc3c(F)cccc3F)cccn2c1-c1ccc2c(ccn2C)c1 [Example 36, 8-[(2,6-difluorobenzyl)oxy]-2-methyl-3-(1-methyl-1H-indol-5-yl)imidazo[1,2-a]pyridine]	3.0 µM
Cc1nc2c(OCc3c(F)cccc3F)cccn2c1-c1ccc(CN(C)C)cc1 [Example 26, 1-(4-{8-[(2,6-difluorobenzyl)oxy]-2-methylimidazo[1,2-a]pyridin-3-yl}phenyl)-N,N-dimethylmethanamine]	1.0 µM
Cc1cc(OCc2c(F)cccc2F)c2nc(C)c(-c3cnn(CCCc4nnn[nH]4)c3)n2c1 [Example 101, 8-[(2,6-Difluorobenzyl)oxy]-2,6-dimethyl-3-{1-[3-(1H-tetrazol-5-yl)propyl]-1H-pyrazol-4-yl}imidazo[1,2-a]pyridine]	0.1 µM
Cc1cc(OCc2ncccc2F)c2nc(C)c(-c3cn[nH]c3)n2c1 [Example 84, 8-[(3-fluoropyridin-2-yl)methoxy]-2,6-dimethyl-3-(1H-pyrazol-4-yl)imidazo[1,2-a]pyridine]	1.0 µM
Cc1cc(OCc2c(F)ccc(F)c2F)c2nc(C)c(-c3cn[nH]c3)n2c1 [Example 86, 2,6-dimethyl-3-(1H-pyrazol-4-yl)-8-[(2,3,6-trifluorobenzyl)oxy]imidazo[1,2-a]pyridine]	0.03 µM
Cc1nc2c(OCC3CCCCC3)cccn2c1-c1nnc(-c2ncccn2)o1 [Example 62, 8-(Cyclohexylmethoxy)-2-methyl-3-[5-(pyrimidin-2-yl)-1,3,4-oxadiazol-2-yl]imidazo[1,2-a]pyridine]	3.0 µM
CSc1cccc(-c2c(C)nc3c(OCc4c(F)cccc4F)cccn23)c1 [Example 33, 8-[(2,6-difluorobenzyl)oxy]-2-methyl-3-[3-(methylsulphanyl)phenyl]imidazo[1,2-a]pyridine]	3.0 µM
CCOC(=O)c1cc(-c2c(C)nc3c(OCc4c(F)cccc4F)cc(C)cn23)on1 [Example 141, Ethyl 5-{8-[(2,6-difluorobenzyl)oxy]-2,6-dimethylimidazo[1,2-a]pyridin-3-yl}-1,2-oxazole-3-carboxylate]	1.0 µM
Cc1cc(OCc2c(F)cccc2F)c2nc(C)c(-c3cccc(CN4CCN(C)CC4)c3)n2c1 [Example 120]	0.3 µM
CCOc1cc(-c2c(C)nc3c(OCc4c(F)cccc4F)cc(C)cn23)sc1N [Example 139, 5-{8-[(2,6-Difluorobenzyl)oxy]-2,6-dimethylimidazo[1,2-a]pyridin-3-yl}-3-ethoxythiophen-2-amine]	0.1 µM
Cc1cc(OCc2c(F)cccc2F)c2nc(C)c(-c3cnn(CCC(=O)O)c3)n2c1 [Example 107, 3-(4-{8-[(2,6-Difluorobenzyl)oxy]-2,6-dimethylimidazo[1,2-a]pyridin-3-yl}-1H-pyrazol-1-yl)propanoic acid]	0.065 µM
Cc1cc(OCc2c(F)cccc2F)c2nc(C)c(-c3cnn(CCN4CC(O)C4)c3)n2c1 [Example 95, 1-[2-(4-{8-[(2,6-Difluorobenzyl)oxy]-2,6-dimethylimidazo[1,2-a]pyridin-3-yl}-1H-pyrazol-1-yl)ethyl]azetidin-3-ol trifluoroacetate]	0.3 µM
Cc1nc2c(OCc3c(F)cccc3F)cccn2c1-c1cnn(-c2ccc(F)cc2)c1 [Example 123, 8-[(2,6-Difluorobenzyl)oxy]-3-[1-(4-fluorophenyl)-1H-pyrazol-4-yl]-2-methylimidazo[1,2-a]pyridine]	0.3 µM
CCN(CC)CCNC(=O)CC(C)n1cc(-c2c(C)nc3c(OCc4c(F)cccc4F)cc(C)cn23)cn1 (racemic) [Example 112, rac-N-[2-(Diethylamino)ethyl]-3-(4-{8-[(2,6-difluorobenzyl)oxy]-2,6-dimethylimidazo[1,2-a]pyridin-3-yl}-1H-pyrazol-1-yl)butanamide]	1.0 µM
COC(=O)Cn1cc(-c2c(C)nc3c(OCc4c(F)cccc4F)cc(C)cn23)cn1 [Example 103, methyl (4-{8-[(2,6-difluorobenzyl)oxy]-2,6-dimethylimidazo[1,2-a]pyridin-3-yl}-1H-pyrazol-1-yl)acetate]	0.03 µM
CCN(CC)Cc1ccc(-c2c(C)nc3c(OCc4c(F)cccc4F)cccn23)cc1F [Example 43, N-(4-{8-[(2,6-difluorobenzyl)oxy]-2-methylimidazo[1,2-a]pyridin-3-yl}-2-fluorobenzyl)-N-ethylethanamine]	3.0 µM
